“Also recorded” adds a separate entry of the source.
Columns and labels:
[1] = tested on: retinal function in C57BL/6 mice; experiment: Electroretinograms (ERGs) after intraocular injection
Method: For scotopic recordings, mice were dark adapted overnight, and for photopic recordings, mice were adapted for 10 min to background white light at an intensity of 30 cd/m^2. The mice were anesthetized with an intraperitoneal injection of ketamine hydrochloride (100 mg/kg body weight) and xylazine (5 mg/kg body weight). Pupils were dilated with Midrin P containing of 0.5% tropicamide and 0.5% phenylephrine, hydrochloride (Santen Pharmaceutical Co., Osaka, Japan). The mice were placed on a pad heated to 39° C. and platinum loop electrodes were placed on each cornea after application of Gonioscopic prism solution (Alcon Labs, Fort Worth, Tex.). A reference electrode was placed subcutaneously in the anterior scalp between the eyes and a ground electrode was inserted into the tail. The head of the mouse was held in a standardized position in a ganzfeld bowl illuminator that ensured equal illumination of the eyes. Recordings for both eyes were made simultaneously with electrical impedance balanced. Scotopic ERGs were recorded at 11 intensity levels of white light ranging from −3.00 to 1.40 log cd-s/m2. Six measurements were averaged for each flash intensity. Photopic ERGs were recorded at three intensity levels of white light ranging from 0.60 to 1.40 log cd-s/m2 with a 30 cd/m2 background. Five measurements were averaged for each flash intensity.

[2] = tested on: photoreceptor cells (ONL) of C57BL/6 mice; experiment: Outer nuclear layer (ONL) thickness after intraocular injection; format: in vivo; conditions: 0.25 μg intraocular; one week
Method: ONL thickness was measured. […] Mice were euthanized, a mark was placed at 12:00 at the corneal limbus, and eyes were removed and embedded in optimal cutting temperature compound. Ten micrometer frozen sections were cut parallel to the 12:00 or 9:00 meridian through the optic nerve and fixed in 4% paraformaldehyde. The sections were stained with hematoxylin and eosin, examined with an Axioskop microscope (Zeiss, Thornwood, N.Y.), and images were digitized using a three charge-coupled device (CCD) color video camera (IK-TU40A; Toshiba, Tokyo, Japan) and a frame grabber. Image-Pro Plus software (Media Cybernetics, Silver Spring, Md.) was used to outline the ONL.

[3] = tested on: HIF-1 transcriptional activity and ocular NV; conditions: intraocular injections of 0.01-0.25 μg; cited from earlier work
[4] = tested on: retinal NV in C57BL/6 mice with oxygen-induced ischemic retinopathy; experiment: Oxygen-induced ischemic retinopathy, area of retinal NV; format: in vivo; conditions: measured five days later (P17)
Method: At P17, the area of retinal NV on the surface of the retina was measured. […] Retinas were dissected, washed, and incubated with goat-anti rat polyclonal antibody conjugated with Alexa 488 (Invitrogen, Carlsbad, Calif.) at 1:500 dilution at room temperature for 45 minutes and flat mounted. An observer masked with respect to treatment group measured the area of NV per retina by image analysis.

[5] = tested on: choroidal NV in C57BL/6 mice; experiment: Laser-induced choroidal NV (rupture of Bruch's membrane) mouse model; format: in vivo; conditions: 14 days, vs fellow eyes injected with vehicle
Method: Pathogen-free C57BL/6 mice (Charles River, Wilmington, Mass.) were treated in accordance with the Association for Research in Vision and Ophthalmology Statement for the Use of Animals in Ophthalmic and Vision Research and the guidelines of the Johns Hopkins University Animal Care and Use Committee.
Choroidal NV was induced by laser photocoagulation-induced rupture of Bruch's membrane as previously described (Tobe, T. et al., Am. J. Pathol. 135(5): 1641-1646 (1998)). […] Laser photocoagulation (75 μm spot size, 0.1 sec duration, 120 mW) was performed in the 9, 12, and 3 o'clock positions of the posterior pole of each eye with the slit lamp delivery system of an OcuLight GL diode laser (Iridex, Mountain View, Calif.) and a handheld cover slip as a contact lens to view the retina. Production of a bubble at the time of laser, which indicates rupture of Bruch's membrane, is an important factor in obtaining CNV; therefore, only burns in which a bubble was produced were included in the study.
Immediately after laser-induced rupture of Bruch's membrane, mice were randomized to various treatment groups for intraocular injections. Intravitreal injections were done under a dissecting microscope with a Harvard Pump Microinjection System and pulled glass micropipettes.
At 1, 4, 7, and 14 days after injection, fundus photographs were taken with a Micron III® camera (Phoenix Research Laboratories Inc., Pleasanton, Calif.). After 14 days, the mice were perfused with 1 ml of PBS containing 25 mg/ml of fluorescein-labeled dextran (2×10^6 Daltons average molecular weight; Sigma-Aldrich, St. Louis, Mo.) and choroidal flat mounts were examined by fluorescence microscopy. Images were captured with a Nikon Digital Still Camera DXM1200 (Nikon Instruments Inc., New York, N.Y.). Image analysis software (Image-Pro® Plus; Media Cybernetics, Silver Spring, Md.) was used to measure the total area of CNV at each rupture site with the investigator masked with respect to treatment group.

[6] = 1 μg intraocular, fourteen days
[7] = 0.1 μg intraocular injection after laser
[8] = 1.0 μg intraocular injection after laser
[9] = 10 μg intraocular injection after laser

| SMILES | mean scotopic and photopic b-wave amplitudes ([1]; 0.05 μg intraocular) | ERG amplitudes (scotopic a-wave, scotopic b-wave, photopic b-wave) ([1]; 0.25 μg intraocular, one week) | outer nuclear layer thickness [2] | effect on HIF-1 transcriptional activity and ocular NV [3] | mean scotopic and photopic b-wave amplitudes [1, 6] | area of RNV ([4]; 0.01 μg intraocular at P12) | area of RNV ([4]; 0.1 μg intraocular at P12) | area of RNV ([4]; 1.0 μg intraocular at P12) | area of CNV [5, 7] | area of CNV [5, 8] | area of CNV [5, 9] |
| --- | --- | --- | --- | --- | --- | --- | --- | --- | --- | --- | --- |
| C[C@H]1O[C@@H](O[C@H]2[C@@H](O)C[C@H](O[C@H]3[C@@H](O)C[C@H](O[C@H]4CC[C@@]5(C)[C@H](CC[C@@H]6[C@@H]5C[C@@H](O)[C@]5(C)[C@@H](C7=CC(=O)OC7)CC[C@]65O)C4)O[C@@H]3C)O[C@@H]2C)C[C@H](O)[C@@H]1O [digoxin] | significant reduction in mean scotopic and photopic b-wave amplitudes | significant reduction in mean scotopic a-wave amplitude, mean scotopic b-wave amplitude, and mean photopic b-wave amplitude | reduction in outer nuclear layer thickness at 3 of 6 measurement locations | suppress HIF-1 transcriptional activity and ocular NV | – | – | – | – | – | – | – |
| COc1cccc2c1C(=O)c1c(O)c3c(c(O)c1C2=O)C[C@@](O)(C(=O)CO)C[C@@H]3O[C@H]1C[C@H](N)[C@H](O)[C@H](C)O1 [DXR, doxorubicin] | – | – | – | – | significant reduction in mean scotopic and photopic b-wave amplitudes | but not 0.1 or 0.01 μg, significantly reduced; also recorded: did not show a statistically significant reduction in the area of RNV | but not 0.1 or 0.01 μg, significantly reduced; also recorded: did not show a statistically significant reduction in the area of RNV | significantly reduced the area of retinal NV; also recorded: statistically significant reduction in the area of RNV | did not have a significant effect; also recorded: did not show a statistically significant reduction in the area of CNV | did not have a significant effect; also recorded: did not show a statistically significant reduction in the area of CNV | suppressed choroidal NV; also recorded: statistically significant reduction in the area of CNV |
| COc1cccc2c1C(=O)c1c(O)c3c(c(O)c1C2=O)C[C@@](O)(C(C)=O)C[C@@H]3O[C@H]1C[C@H](N)[C@H](O)[C@H](C)O1 [DNR, daunorubicin] | – | – | – | – | significant reduction in mean scotopic and photopic b-wave amplitudes | had no significant effect; also recorded: did not show a statistically significant reduction in the area of RNV | caused a small reduction; also recorded: statistically significant reduction in the area of RNV | markedly reduced the area of retinal NV; also recorded: statistically significant reduction in the area of RNV | had no significant effect; also recorded: did not show a statistically significant reduction in the area of CNV | had no significant effect; also recorded: did not show a statistically significant reduction in the area of CNV | suppressed choroidal NV; also recorded: statistically significant reduction in the area of CNV |

— US9950072B2, “Controlled release formulations for the delivery of HIF-1 inhibitors” (The Johns Hopkins University, priority 2012, dated 2018)
